SMILES strings stand for the structures.

The target of one assay is T1, CDK2/CycE (Homo sapiens, UniProt P24941).
T1 construct: GST; purchased ProQinase GmbH (Freiburg, Germany); host or cells: insect cells (Sf9)
Description: CDK2/CycE kinase assay (TR-FRET, Method 2). Format: biochemical. Conditions: Method 2, 10 μM ATP. The source says: 2. CDK2/CycE Kinase Assay:
CDK2/CycE -inhibitory activity of compounds of the present invention was quantified employing the CDK2/CycE TR-FRET assay as described in the following paragraphs:
Recombinant fusion proteins of GST and human CDK2 and of GST and human CycE, expressed in insect cells (Sf9) and purified by Glutathion-Sepharose affinity chromatography, were purchased from ProQinase GmbH (Freiburg, Germany). As substrate for the kinase reaction biotinylated peptide biotin-Ttds-YISPLKSPYKISEG (C-terminus in amid form) was used which can be purchased e.g. form the company JERINI Peptide Technologies (Berlin, Germany).
(§1) For the assay 50 nl of a 100 fold concentrated solution of the test compound in DMSO was pipetted into a black low volume 384 well microtiter plate (Greiner Bio-One, Frickenhausen, Germany), 2 μl of a solution of CDK2/CycE in aqueous assay buffer [50 mM Tris/HCl pH 8.0, 10 mM MgCl2, 1.0 mM dithiothreitol, 0.1 mM sodium ortho-vanadate, 0.01% (v/v) Nonidet-P40 (Sigma)] were added and the mixture was incubated for […] at 22° C. to allow pre-binding of the test compounds to the enzyme before the start of the kinase reaction. Then the kinase reaction was started by the addition of 3 μl of a solution of adenosine-tri-phosphate (ATP, 16.7 μM=>final conc. in the 5 μl assay volume is 10 μM) and substrate (1.25 μM=>final conc. in the 5 μl assay volume is 0.75 μM) in assay buffer and the resulting mixture was incubated for a reaction time of […] at 22° C. The concentration of CDK2/CycE was adjusted depending of the activity of the enzyme lot and was chosen appropriate to have the assay in the linear range, typical concentrations were in the range of 130 ng/ml. The reaction was stopped by the addition of 5 μl of a solution of TR-FRET detection reagents (0.2 μM streptavidine-XL665 [Cisbio Bioassays, Codolet, France] and 1 nM anti-RB(pSer807/pSer811)-antibody from BD Pharmingen [#558389] and 1.2 nM LANCE EU-W1024 labeled anti-mouse IgG antibody [Perkin-Elmer, product no. AD0077]) in an aqueous EDTA-solution (100 mM EDTA, 0.2% (w/v) bovine serum albumin in 100 mM HEPES/NaOH pH 7.0).
(§2) The resulting mixture was incubated 1 h at 22° C. to allow the formation of complex between the phosphorylated biotinylated peptide and the detection reagents. Subsequently the amount of phosphorylated substrate was evaluated by measurement of the resonance energy transfer from the Eu-chelate to the streptavidine-XL. Therefore, the fluorescence emissions at 620 nm and 665 nm after excitation at 350 nm was measured in a TR-FRET reader, e.g. a Rubystar (BMG Labtechnologies, Offenburg, Germany) or a Viewlux (Perkin-Elmer). The ratio of the emissions at 665 nm and at […] was taken as the measure for the amount of phosphorylated substrate. The data were normalised (enzyme reaction without inhibitor=0% inhibition, all other assay components but no enzyme=100% inhibition).
(In general: TR-FRET usually uses a lanthanide donor and a delayed reading to cut background.)

In the next assay the test system is HeLa cells. As to the kind of experiment: Proliferation assay (crystal violet), HeLa. Format: cell-based. To be noted: Homo sapiens, 96 h, 4 days, read-out: Inhibition of HeLa cell proliferation IC50. The method, then: Cultivated tumour cells (HeLa, human cervical tumour cells, ATCC CCL-2; NCI-H460, human non-small cell lung carcinoma cells, ATCC HTB-177; A2780, human ovarian carcinoma cells, ECACC #93112519; DU 145, hormone-independent human prostate carcinoma cells, ATCC HTB-81; HeLa-MaTu-ADR, multidrug-resistant human cervical carcinoma cells, EPO-GmbH Berlin; Caco-2, human colorectal carcinoma cells, ATCC HTB-37; B 16F10, mouse melanoma cells, ATCC CRL-6475) were plated at a density of 5,000 cells/well (DU145, HeLa-MaTu-ADR), 3,000 cells/well (NCI-H460, HeLa), 2,500 cells/well (A2780), 1,500 cells/well (Caco-2), or 1,000 cells/well (B16F10) in a 96-well multititer plate in 200 μL of their respective growth medium supplemented 10% fetal calf serum. After 24 hours, the cells of one plate (zero-point plate) were stained with crystal violet (see below), while the medium of the other plates was replaced by fresh culture medium (200 to which the test substances were added in various concentrations (0 μM, as well as in the range of 0.001-10 μM; the final concentration of the solvent dimethyl sulfoxide was 0.5%). The cells were incubated for 4 days in the presence of test substances. Cell proliferation was determined by staining the cells with crystal violet: the cells were fixed by adding 20 μl/measuring point of an 11% glutaric aldehyde solution for 15 minutes at room temperature. After three washing cycles of the fixed cells with water, the plates were dried at room temperature. The cells were stained by adding 100 μl/measuring point of a 0.1% crystal violet solution (pH 3.0). After three washing cycles of the stained cells with water, the plates were dried at room temperature. The dye was dissolved by adding 100 μl/measuring point of a 10% acetic acid solution. The extinction was determined by photometry at a wavelength of 595 nm. The change of cell number, in percent, was calculated by normalization of the measured values to the extinction values of the zero-point plate (=0%) and the extinction of the untreated (0 μm) cells (=100%). The IC50 values (inhibitory concentration at 50% of maximal effect) were determined by means of a 4 parameter fit.

In assay [1] the target is T2, CDK9/CycT1 (Homo sapiens, UniProt P50750).
T2 construct: Recombinant full-length His-tagged human CDK9 and CycT1; His; purchased Invitrogen PV4131; host or cells: insect cells
Description: CDK9/CycT1 kinase assay (TR-FRET, Method 1a). Format: biochemical. To be noted: for IC50: Method 1a, 10 μM ATP; for Selectivity CDK9/CDK2: derived from Methods 1a. and 2.
From the text: 1a. CDK9/CyeT1 Kinase Assay:
CDK9/CycT1-inhibitory activity of compounds of the present invention was quantified employing the CDK9/CycT1 TR-FRET assay as described in the following paragraphs:
Recombinant full-length His-tagged human CDK9 and CycT1, expressed in insect cells and purified by Ni-NTA affinity chromatography, were purchased from Invitrogen (Cat. No PV4131). As substrate for the kinase reaction biotinylated peptide biotin-Ttds-YISPLKSPYKISEG (C-terminus in amid form) was used which can be purchased e.g. form the company JERINI Peptide Technologies (Berlin, Germany). For the assay 50 nl of a 100 fold concentrated solution of the test compound in DMSO was pipetted into a black low volume 384 well microtiter plate (Greiner Bio-One, Frickenhausen, Germany), 2 μl of a solution of CDK9/CycT1 in aqueous assay buffer [50 mM Tris/HCl pH 8.0, 10 mM MgCl2, 1.0 mM dithiothreitol, 0.1 mM sodium ortho-vanadate, 0.01% (v/v) Nonidet-P40 (Sigma)] were added and the mixture was incubated for 15 min at 22° C. to allow pre-binding of the test compounds to the enzyme before the start of the kinase reaction. Then the kinase reaction was started by the addition of 3 μl of a solution of adenosine-tri-phosphate (ATP, 16.7 μM=>final conc. in the 5 μl assay volume is 10 μM) and substrate (1.67 μM=>final conc. in the 5 μl assay volume is 1 μM) in assay buffer and the resulting mixture was incubated for a reaction time of 25 min at 22° C. The concentration of CDK9/CycT1 was adjusted depending of the activity of the enzyme lot and was chosen appropriate to have the assay in the linear range, typical concentrations were in the range of 1 μg/ml. The reaction was stopped by the addition of 5 μl of a solution of TR-FRET detection reagents (0.2 μM streptavidine-XL665 [Cisbio Bioassays, Codolet, France] and 1 nM anti-RB(pSer807/pSer811)-antibody from BD Pharmingen [#558389] and 1.2 nM LANCE EU-W1024 labeled anti-mouse IgG antibody [Perkin-Elmer, product no. AD0077]) in an aqueous EDTA-solution (100 mM EDTA, 0.2% (w/v) bovine serum albumin in 100 mM HEPES/NaOH pH 7.0).
as §2, with “HTRF” for “TR-FRET”

Assay [2] deals with T2, CDK9/CycT1. As to the kind of experiment: CDK9/CycT1 high ATP kinase assay (TR-FRET, Method 1b). Format: biochemical. To be noted: 2 mM ATP. How it is done: 1b. CDK9/CyeT1 High ATP Kinase Assay
CDK9/CycT1-inhibitory activity of compounds of the present invention at a high ATP concentration after preincubation of enzyme and test compounds was quantified employing the CDK9/CycT1 TR-FRET assay as described in the following paragraphs.
Recombinant full-length His-tagged human CDK9 and CycT1, expressed in insect cells and purified by Ni-NTA affinity chromatography, were purchase from Invitrogen (Cat. No PV4131). As substrate for the kinase reaction biotinylated peptide biotin-Ttds-YISPLKSPYKISEG (C-terminus in amid form) was used which can be purchased e.g. form the company JERINI peptide technologies (Berlin, Germany).
as §1, with “of CDK9/CycT1” for “of CDK2/CycE”, “(ATP, 3.3 mM=>final conc. in the 5 μl assay volume is 2 mM) and substrate (1.67” for “(ATP, 16.7”, “is 1” for “is 10 μM) and substrate (1.25 μM=>final conc. in the 5 μl assay volume is 0.75”, “of 0.5” for “of 130”, “([…]” for “(0.2 μM”
as §2, with “HTRF” for “TR-FRET”

T2 sequence (P50750 whole entry): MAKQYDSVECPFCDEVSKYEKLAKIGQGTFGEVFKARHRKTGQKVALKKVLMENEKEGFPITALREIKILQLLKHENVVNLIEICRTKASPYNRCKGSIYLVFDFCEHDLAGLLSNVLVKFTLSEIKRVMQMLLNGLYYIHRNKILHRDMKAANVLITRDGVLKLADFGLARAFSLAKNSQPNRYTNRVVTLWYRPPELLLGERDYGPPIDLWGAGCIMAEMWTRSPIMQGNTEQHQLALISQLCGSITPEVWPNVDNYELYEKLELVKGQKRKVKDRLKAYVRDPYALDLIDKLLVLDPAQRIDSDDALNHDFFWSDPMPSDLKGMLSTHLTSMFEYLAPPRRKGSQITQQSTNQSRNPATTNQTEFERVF
T2 sequence (O60563 whole entry partner): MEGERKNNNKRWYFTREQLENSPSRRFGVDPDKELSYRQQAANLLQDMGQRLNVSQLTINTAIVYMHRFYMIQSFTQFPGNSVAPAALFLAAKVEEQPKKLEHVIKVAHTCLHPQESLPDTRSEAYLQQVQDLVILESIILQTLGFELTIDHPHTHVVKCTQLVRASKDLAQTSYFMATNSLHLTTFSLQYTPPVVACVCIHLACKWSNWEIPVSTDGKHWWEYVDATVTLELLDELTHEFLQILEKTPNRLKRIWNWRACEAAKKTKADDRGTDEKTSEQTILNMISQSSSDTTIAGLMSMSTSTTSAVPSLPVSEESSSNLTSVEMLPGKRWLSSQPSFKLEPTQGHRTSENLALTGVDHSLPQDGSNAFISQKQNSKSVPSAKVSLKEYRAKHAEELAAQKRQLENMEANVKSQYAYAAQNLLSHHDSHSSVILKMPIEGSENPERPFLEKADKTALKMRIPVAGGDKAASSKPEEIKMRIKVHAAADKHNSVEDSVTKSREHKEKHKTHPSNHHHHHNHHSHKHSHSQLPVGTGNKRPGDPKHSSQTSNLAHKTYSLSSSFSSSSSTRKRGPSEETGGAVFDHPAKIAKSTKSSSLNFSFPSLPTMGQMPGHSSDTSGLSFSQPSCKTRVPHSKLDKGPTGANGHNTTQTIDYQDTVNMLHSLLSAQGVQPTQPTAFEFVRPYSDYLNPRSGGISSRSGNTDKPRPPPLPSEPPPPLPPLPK

For `CS(=O)(=O)Cc1cc(Nc2ncc(F)c(-c3ccc(F)cc3F)n2)cc(C(F)(F)F)c1` [Example 1, 4-(2,4-Difluorophenyl)-5-fluoro-N-{3-[(methylsulfonyl)methyl]-5-(trifluoromethyl)phenyl}pyrimidin-2-amine], the IC50 against CDK2/CycE was over 20 µM; in the assay with HeLa cells it was 1.05 µM; on CDK9/CycT1 [1], 0.02 µM. The “Selectivity CDK9/CDK2” value on CDK9/CycT1 [1] is recorded as over 1000.

As for `CCCS(=O)(=O)Cc1cc(F)cc(Nc2ncc(F)c(-c3cc(F)c(F)cc3F)n2)c1` [Example 14, 5-Fluoro-N-{3-fluoro-5-[(propylsulfonyl)methyl]phenyl}-4-(2,4,5-trifluorophenyl)pyrimidin-2-amine], the IC50 is over 20 µM at CDK2/CycE, 3 µM in the assay with HeLa cells and over 20 µM at CDK9/CycT1 [2].

In the case of `CCS(=O)(=O)Cc1cccc(Nc2ncc(F)c(-c3ccc(F)cc3F)n2)c1` [Example 7, 4-(2,4-Difluorophenyl)-N-{3-[(ethylsulfonyl)methyl]phenyl}-5-fluoropyrimidin-2-amine], the results for the IC50 against CDK2/CycE, in the assay with HeLa cells and at CDK9/CycT1 [1] were 0.36 µM, 2.24 µM and 0.04 µM, respectively. The “Selectivity CDK9/CDK2” value at CDK9/CycT1 [1] is 8.9.

For the origin of these results see patent US20150259300A1, “4-(ORTHO)-FLUOROPHENYL-5-FLUOROPYRIMIDIN-2-YL AMINES CONTAINING A SULFONE GROUP” (BAYER PHARMA AKTIENGESELLSCHAFT, priority 2012, published 2015).
